Results on eleven molecules are retold here after ChEMBL document CHEMBL1156096, “Synthesis and antitubercular activity of 7-chloro-4-quinolinylhydrazones derivatives” (Bioorg Med Chem Lett, 2009).

SMILES strings stand for the structures. Values after ≈ are worked out from the molar mass of the structure shown.

Data set [1] relates to Mycobacterium tuberculosis. Description: Antimycobacterial activity against Mycobacterium tuberculosis H37Rv ATCC 27294 by microplate alamar blue assay. Type of data set: functional. For orientation: Resazurin is reduced to fluorescent resorufin, in cell work by metabolically active cells.
Data set [2] in a line: Cytotoxicity against mouse J774 cells assessed as cell viability at 100 ug/ml by MTT assay. The data set is classed as cell-based. The note with it: read-out: Activity. (In general: Tetrazolium dyes change colour on reduction, which living cells bring about.)
Data set [3] in a line: Cytotoxicity against mouse J774 cells assessed as cell viability at 10 ug/ml by MTT assay. Type of data set: cell-based. The following applies: read-out: Activity.
Data set [4] in a line: Cytotoxicity against mouse J774 cells assessed as cell viability at 1 ug/ml by MTT assay. Type of data set: cell-based. The following applies: read-out: Activity.
Data set [5] is described as follows: Cytotoxicity against mouse J774 cells infected with Mycobacterium bovis BCG assessed as cell viability at 10 ug/ml by MTT assay. The data set is classed as cell-based. The note with it: read-out: Activity.
Data set [6] can be described thus: Cytotoxicity against mouse J774 cells infected with Mycobacterium bovis BCG assessed as cell viability at 100 ug/ml by MTT assay. Type of data set: cell-based. The following applies: read-out: Activity.
Data set [7] can be described thus: Cytotoxicity against mouse J774 cells infected with Mycobacterium bovis BCG assessed as cell viability at 1 ug/ml by MTT assay. The following applies: read-out: Activity. Type of data set: cell-based.

The MIC is the smallest concentration in the dilution series that meets the test's criterion for growth inhibition. Read a high MIC as a need for much substance. As to `Clc1ccc2c(N/N=C/c3ccccc3)ccnc2c1`, the MIC in data set [1] is over 100 µg/mL.
Still for that read-out and setting: to `O=[N+]([O-])c1ccc(/C=N/Nc2ccnc3cc(Cl)ccc23)cc1` belongs over 100 µg/mL.
In turn, `Clc1ccc2c(N/N=C/c3cccc(Br)c3)ccnc2c1` came in with an MIC in data set [1] of 3.12 µg/mL (≈ 8.65 µM). For the same molecule, the viability at 100 ug/ml in data set [2] came out at 3%. Moreover, the viability at 10 ug/ml in data set [3] came out at 60%. Further, in data set [4], the viability at 1 ug/ml is 88%.
As to `O=[N+]([O-])c1cccc(/C=N/Nc2ccnc3cc(Cl)ccc23)c1`, in data set [1], the MIC is over 100 µg/mL.
Still for that read-out and setting: next, `Clc1ccc2c(N/N=C/c3ccccc3Br)ccnc2c1`: over 100 µg/mL.
As to `O=[N+]([O-])c1ccccc1/C=N/Nc1ccnc2cc(Cl)ccc12`, in data set [1], the MIC was over 100 µg/mL.
In data set [1], `CC[C@@H](CO)NCCN[C@@H](CC)CO` [ETHAMBUTOL] returned an MIC of 3.25 µg/mL (≈ 15.9 µM). In addition, the viability at 1 ug/ml in data set [4] came out at 100%.
For the molecule `N#Cc1ccc(/C=N/Nc2ccnc3cc(Cl)ccc23)cc1`, in data set [1], the MIC is over 100 µg/mL.
For `Clc1ccc2c(N/N=C/c3ccc(Br)cc3)ccnc2c1`, the viability at 10 ug/ml in data set [5] and in data set [3] was 100% in each case. For the same molecule, 2.5 µg/mL (≈ 6.93 µM) was the least that counted as inhibitory in data set [1] (MIC). In addition, the viability at 100 ug/ml in data set [2] is 91%; in data set [6], 85%. Also, the viability at 1 ug/ml in data set [7] and in data set [4] was 100% each time.
As for `Oc1cccc(/C=N/Nc2ccnc3cc(Cl)ccc23)c1`, the minimum inhibitory concentration (MIC) in data set [1] was over 100 µg/mL.
On the same count and under the same terms, next, `Fc1cccc(/C=N/Nc2ccnc3cc(Cl)ccc23)c1`: over 100 µg/mL.
